Key:
His-hSHIP1 enzyme = target: T1, His-hSHIP1 enzyme (Homo sapiens, UniProt Q92835); experiment: His-hSHIP1 phosphatase activity assay (IP4 substrate, Biomol Green); format: biochemical; settings: percentage increase relative to background; concentrations ≦300 μM
T1 sequence (Q92835 1-1189): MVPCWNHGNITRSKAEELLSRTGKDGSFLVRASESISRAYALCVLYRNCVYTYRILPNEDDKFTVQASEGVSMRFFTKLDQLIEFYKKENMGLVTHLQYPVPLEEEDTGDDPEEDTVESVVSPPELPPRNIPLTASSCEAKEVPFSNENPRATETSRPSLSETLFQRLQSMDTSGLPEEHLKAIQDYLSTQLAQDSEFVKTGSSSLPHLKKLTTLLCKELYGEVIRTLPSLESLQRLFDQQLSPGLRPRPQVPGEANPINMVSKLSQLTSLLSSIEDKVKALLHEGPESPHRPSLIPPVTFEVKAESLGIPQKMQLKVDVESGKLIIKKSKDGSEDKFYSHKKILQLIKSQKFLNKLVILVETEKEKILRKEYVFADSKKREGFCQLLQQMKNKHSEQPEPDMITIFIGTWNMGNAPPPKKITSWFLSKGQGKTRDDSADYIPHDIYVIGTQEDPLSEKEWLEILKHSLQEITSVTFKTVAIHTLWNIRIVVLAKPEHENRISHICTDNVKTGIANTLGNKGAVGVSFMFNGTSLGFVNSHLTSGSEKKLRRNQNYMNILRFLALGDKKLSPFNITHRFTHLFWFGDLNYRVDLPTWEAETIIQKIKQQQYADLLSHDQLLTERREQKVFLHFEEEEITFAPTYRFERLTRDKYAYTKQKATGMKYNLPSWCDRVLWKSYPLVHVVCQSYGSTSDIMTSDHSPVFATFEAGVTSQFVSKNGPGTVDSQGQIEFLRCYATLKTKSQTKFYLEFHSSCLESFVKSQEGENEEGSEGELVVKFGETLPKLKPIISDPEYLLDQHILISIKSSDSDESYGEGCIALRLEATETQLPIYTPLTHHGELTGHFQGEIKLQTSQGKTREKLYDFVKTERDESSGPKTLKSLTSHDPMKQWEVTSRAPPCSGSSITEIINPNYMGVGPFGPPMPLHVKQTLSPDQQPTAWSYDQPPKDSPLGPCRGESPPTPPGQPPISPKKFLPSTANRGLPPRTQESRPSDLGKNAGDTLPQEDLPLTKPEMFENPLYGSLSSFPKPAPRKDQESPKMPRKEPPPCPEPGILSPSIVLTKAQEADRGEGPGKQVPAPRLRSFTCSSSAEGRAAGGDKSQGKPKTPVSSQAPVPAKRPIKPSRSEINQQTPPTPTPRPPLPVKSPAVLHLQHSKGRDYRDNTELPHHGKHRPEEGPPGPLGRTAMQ
Method: Test compounds were dissolved in 95% ethanol to form stock solutions. Before screening, the stock solutions were diluted with Phosphatase Assay Buffer (20 mM Tris-HCL, 10 mM MgCl2 pH 7.5, 0.02% Tween 20) to form working assay solutions that contained 10% ethanol. The assay was carried out on 96-well microtiter plates using a modified procedure of that reported by Ong et al., Blood 110, 1942-1949, 2007 and Yang et al., Org Lett 7, 1073-1076, 2005, both of which references are incorporated herein by reference in their entirety.
Each reaction contained 5 μL of His-hSHIP1 enzyme (15-20 ng), 10 μL of the substrate, 1,3,4,5-inositol tetrakisphosphate (IP4; 50 μM final), 5 μL of Phosphatase Assay Buffer, and 5 μL of test compound at various concentrations in 10% ethanol (0-300 μM final). Control blanks were also prepared by replacing His-hSHIP1 enzyme, IP4, or test compounds with Phosphatase Assay Buffer. After adding the reaction components in a 96-well microtiter plate on ice, the reaction was mixed by briefly shaking the plate vigorously. The reaction was then incubated at 37° C. for 15 min with gentle shaking followed by addition of 100 μL of Biomol Green Reagent (BIOMOL, PA, USA) to terminate the reaction. The free phosphate released from IP4 by His-hSHIP1 bound to the Biomol Green Reagent, turning the solution green in colour. After incubating the mixture for 20 min at room temperature for colour development, the absorbance was read with a SpectraMax Plus 96-well plate reader (Molecular Devices, Sunnyvale, Calif., USA) at a wavelength of 650 nm.
Percent (%) activation in Table 2 is expressed as a percentage increase relative to background. Scoring is expressed as follows: + (<50%); ++ (≧50% but <65%); +++ (≧65%).

[1] = test system: Akt phosphorylation in Molt-4 (PTEN−/SHIP1+) cells; experiment: Akt phosphorylation in IGF-1 stimulated Molt-4 lymphocytes (western blot); format: cell-based; design: key: +: inhibits Akt phosphorylation at 10 μM; −: no effect on Akt phosphorylation at 10 μM; settings: 10 μM; IGF-1 stimulation
Method: (§1) Jurkat (PTEN−/SHIP1−) or Molt-4 (PTEN−/SHIP1+) cells were starved in serum free RPMI for overnight. In a 15 mL conical tube, 2-3 million serum starved cells (1 million cells per mL) were treated with various concentrations of test compound (0.1, 1, or 10 μM final in 0.1% DMSO) for 30 min at 37° C. followed by stimulation with 100 ng/mL of IGF-1 for 1 hour at 37° C. After stimulation, cells were washed once with ice-cold DPBS and lysed with Lysis Buffer (20 mM Tris-HCl, pH 7.5, 140 mM NaCl, 1% NP-40, Complete Mini Protease Inhibitor Cocktail, 10 mM NaF, 1 mM Na3VO4, 1 mM β-glycerolphosphate) on ice for 30 min with vortexing every 10 min. Samples were then centrifuged at 13,000 rpm for 20 min, and supernatants were collected as total cell lysate samples. Protein concentration was determined using bicinchonic acid assay, and about 15 μg of total protein from each sample was loaded and separated on a 4-12% Tris-Glycine gel. After SDS-PAGE, proteins were transferred from the gel to a nitrocellulose membrane. The membrane was blocked in 5% BSA in PBS containing 0.1% Tween-20 (PBS-T) for 1 hour at room temperature before probing with primary antibodies for overnight at 4° C. The following antibodies were used: mouse anti-SHIP1 (1:500 dilution; Santa Cruz, Calif., USA), rabbit anti-phospho-Akt(Ser473) (1:1000 dilution; Cell Signaling Technologies, MA, USA), rabbit anti-Akt (1:1000; Cell Signaling Technologies, MA, USA), and rabbit anti-actin (1:2000; Cell Signaling Technologies, MA, USA). The membrane was then incubated with goat anti-rabbit or anti-mouse secondary antibodies (1:3000) for 1 hour at room temperature. Target proteins on the membrane were detected with ECL solution and exposed on a film.
(§2) Scoring in Table 3 is expressed as follows: + (inhibits Akt phosphorylation at 10 μM); − (no effect on Akt phosphorylation at 10 μM).

[2] = test system: Akt phosphorylation in Jurkat (PTEN−/SHIP1−) cells; experiment: Akt phosphorylation in IGF-1 stimulated Jurkat lymphocytes (western blot); format: cell-based; design: key: +: inhibits Akt phosphorylation at 10 μM; −: no effect on Akt phosphorylation at 10 μM; settings: 10 μM; IGF-1 stimulation
Method: as §1, §2

OPM2 cells = experiment: Inhibition of OPM2 proliferation (BrdU ELISA); format: cell-based; settings: Homo sapiens, OPM-2, 72 hours, read-out: Scoring: % inhibition of OPM2 proliferation
Method: Test compounds were dissolved in 100% DMSO to form stock solutions. Prior to screening, the stock solutions were diluted with complete media (RPMI 1640 containing 10% fetal calf serum, 2 mM L-glutamine and 50 U/mL each of penicillin and streptomycin) to form working assay solutions that contain 0.2% DMSO. The assay was initiated by adding 30,000 OPM2 cells (in 50 μL) to 50 μL of representative compounds at concentrations ranging from 0.03 to 30 μM. The cells were incubated for 72 hours in a humidified CO2 incubator with the addition of 10 μM BrdU for the final 6 hours according to the directions from the Roche BrdU Cell Proliferation ELISA kit used to detect proliferation (Roche, Cat. No. 11 647 229 001). OPM2 cells incubated in 0.1% DMSO in complete media were used as a negative control and the PI3Kα Inhibitor 2 (3-[4-(4-morpholinyl)thieno[3,2-d]pyrimidin-2-yl-phenol, Cayman Chemical, Cat. No. 10010177) was used as a positive control for inhibition of proliferation. At the end of the incubation, the plate containing the labeled cells was centrifuged, the supernatant removed and the cell pellets dried at 60° C. for 1 hour and stored at 4° C. until further analysis. Analysis of BrdU incorporation was done according to the manufacturer's instructions.

Scoring: percent (%) activation of His-hSHIP1 enzyme (His-hSHIP1 enzyme)	Structure (SMILES)	Akt phosphorylation, Molt-4 (SHIP1+) [1]	Akt phosphorylation, Jurkat (SHIP1−) [2]	inhibition at 30 µM (OPM2 cells)
+ (<50%)	CC1(C)CCC[C@]2(C)[C@H]3COc4cc(O)cc(O)c4[C@]3(C)CC[C@@H]12 [Compound No. 50, (1R,10R,11S,16S)-1,11,15,15-tetramethyl-8-oxatetracyclo[8.8.0.0^2,7.0^11,16]octadeca-2,4,6-triene-3,5-diol]	+	−	
++ (≧50% but <65%)	CNC(=O)c1cc(O)c2c(c1)S(=O)(=O)C[C@@H]1[C@@]3(C)CCCC(C)(C)[C@@H]3CC[C@@]21C [Compound No. 62]			25 to 75%
+ (<50%)	COc1cc(O)cc2c1[C@]1(C)CC[C@H]3C(C)(C)CCC[C@]3(C)[C@H]1CS2(=O)=O [compound 57, (1R,10R,11S,16S)-5-hydroxy-3-methoxy-1,11,15,15-tetramethyl-8λ^6-thiatetracyclo[8.8.0.0^2,7.0^11,16]octadeca-2,4,6-triene-8,8-dione]			≥ 75%
+ (<50%)	CC1(C)CCC[C@]2(C)[C@H]3CSc4cc(O)cc(C#N)c4[C@]3(C)CC[C@@H]12 [compound 78, (1R,10R,11S,16S)-5-hydroxy-1,11,15,15-tetramethyl-8-thiatetracyclo[8.8.0.0^2,7.0^11,16]octadeca-2,4,6-triene-3-carbonitrile]			≥ 75%
+ (<50%)	CNC(=O)c1cc(OC)c2c(c1)S(=O)(=O)C[C@@H]1[C@@]3(C)CCCC(C)(C)[C@@H]3CC[C@@]21C [compound 81, (1R,10R,11S,16S)-3-methoxy-N,1,11,15,15-pentamethyl-8,8-dioxo-8λ^6-thiatetracyclo[8.8.0.0^2,7.0^11,16]octadeca-2,4,6-triene-5-carboxamide]			25 to 75%
++ (≧50% but <65%)	CC1(C)CCC[C@]2(C)[C@H]3CS(=O)(=O)c4cc(C(=O)N5CCOCC5)cc(O)c4[C@]3(C)CC[C@@H]12 [compound 87, (1R,10R,11S,16S)-3-hydroxy-1,11,15,15-tetramethyl-5-[(morpholin-4-yl)-carbonyl]-8λ^6-thiatetracyclo[8.8.0.0^2,7.0^11,16]-octadeca-2,4,6-triene-8,8-dione]			25 to 75%
+ (<50%)	CN1CCN(C(=O)c2cc(O)c3c(c2)S(=O)(=O)C[C@@H]2[C@@]4(C)CCCC(C)(C)[C@@H]4CC[C@@]32C)CC1 [compound 89, (1R,10R,11S,16S)-3-hydroxy-1,11,15,15-tetramethyl-5-[(4-methylpiperazin-1-yl)-carbonyl]-8λ^6-thiatetracyclo[8.8.0.0^2,7.0^11,16]octadeca-2,4,6-triene-8,8-dione]			≥ 75%
+ (<50%)	COC(=O)CNC(=O)c1cc(O)c2c(c1)S(=O)(=O)C[C@@H]1[C@@]3(C)CCCC(C)(C)[C@@H]3CC[C@@]21C [compound 92, methyl 2-{[(1R,10R,11S,16S)-3-hydroxy-1,11,15,15-tetramethyl-8,8-dioxo-8λ^6-thiatetracyclo[8.8.0.0^2,7.0^11,16]octadeca-2,4,6-trien-5-yl]formamido}acetate]			≥ 75%
+ (<50%)	CC1(C)CCC[C@]2(C)[C@H]3CS(=O)(=O)c4cc(C(=O)N5CCNCC5)cc(O)c4[C@]3(C)CC[C@@H]12 [compound 102, (1R,10R,11S,16S)-3-hydroxy-1,11,15,15-tetramethyl-5-[(piperazin-1-yl)carbonyl]-8λ^6-thiatetracyclo[8.8.0.0^2,7.0^11,16]-octadeca-2,4,6-triene-8,8-dione]			≥ 75%
	COc1cc(OCC(=O)N2CCOCC2)cc2c1[C@]1(C)CC[C@H]3C(C)(C)CCC[C@]3(C)[C@H]1CS2(=O)=O [compound 110, (1R,10R,11S,16S)-3-methoxy-1,11,15,15-tetramethyl-5-[2-(morpholin-4-yl)-2-oxoethoxy]-8^6-thiatetracyclo[8.8.0.0^2,7.0^11,16]octadeca-2,4,6-triene-8,8-dione]			< 25%
	COc1cc(OC)c2c(c1N)S(=O)(=O)C[C@@H]1[C@@]3(C)CCCC(C)(C)[C@@H]3CC[C@@]21C [compound 112, (1R,10R,11S,16S)-6-amino-3,5-dimethoxy-1,11,15,15-tetramethyl-8^6-thiatetracyclo[8.8.0.0^2,7.0^11,16]octadeca-2,4,6-triene-8,8-dione]			≥ 75%
